Source: patent US20240239775A1, “FXR REGULATOR, PREPARATION METHOD THEREFOR, PHARMACEUTICAL COMPOSITION THEREOF AND USE THEREOF” (QINGDAO RUIJI MEDICAL TECHNOLOGY CO., LTD., priority 2021, published 2024)

Biological target: T1, FXR (Homo sapiens, UniProt Q96RI1)
T1 construct: 5 μL of 20 nM FXR-LBD Complete Coregulator buffer G; purchased ThermoFisher PV4833
T1 sequence (Q96RI1 262-486 limits assumed): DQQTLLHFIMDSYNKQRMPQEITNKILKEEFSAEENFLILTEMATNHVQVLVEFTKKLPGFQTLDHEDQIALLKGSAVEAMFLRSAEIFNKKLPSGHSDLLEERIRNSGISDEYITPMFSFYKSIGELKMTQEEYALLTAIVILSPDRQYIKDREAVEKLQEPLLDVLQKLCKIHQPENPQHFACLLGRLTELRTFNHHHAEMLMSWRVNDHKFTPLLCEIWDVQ
Assay: FXR antagonist screening by TR-FRET (LanthaScreen TR-FRET FXR co-activation assay kit)
Format: biochemical
Conditions: TR-FRET with CDCA, geometric means of at least two independent runs
Method in brief: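 FXR-LBD (20 nM working solution) mixed with compound, CDCA (200 μM working solution) as agonist, Fluorescein-SRC2-2 and Tb-anti-GST antibody in Coregulator buffer G; 10 h at room temperature. Coactivator recruitment read by TR-FRET, triplicate wells.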

[1] = Table 1.2, FXR antagonistic activity
[2] = Table 1.1, FXR antagonistic activity

Compound | IC50 [1] | IC50 [2]
Cc1c(C(=O)O)sc2ccc(S(=O)(=O)N(Cc3ccccc3)c3ccccc3N3CCN(C(=O)c4sccc4Br)CC3)cc12 [Example F27-S181, 5-(N-benzyl-N-(2-(4-(3-bromothiophene-2-carbonyl)piperazin-1-yl)phenyl)sulfamoyl)-3-methylbenzothiophene-2-carboxylic acid] | 0.1 to 10 µM | –
Cc1c(C(=O)O)sc2ccc(S(=O)(=O)N(C)c3ccccc3N3CCN(C(=O)c4sccc4Br)CC3)cc12 [Example F27-S182, 5-(N-(2-(4-(3-bromothiophene-2-carbonyl)piperazin-1-yl)phenyl)-N-methylsulfamoyl)-3-methylbenzothiophene-2-carboxylic acid] | 0.1 to 10 µM | –
Cc1c(C(=O)O)sc2ccc(S(=O)(=O)N(CCc3cccs3)c3ccccc3N3CCN(C(=O)c4sccc4Br)CC3)cc12 [Example F27-S183, 5-(N-(2-(4-(3-bromothiophene-2-carbonyl)piperazin-1-yl)phenyl)-N-(2-(thiophen-2-yl)ethyl)sulfamoyl)-3-methylbenzothiophene-2-carboxylic acid] | 0.1 to 10 µM | –
Cc1c(CO)oc2ccc(S(=O)(=O)N(CCc3ccccc3)c3ccccc3N3CCN(C(=O)c4sccc4Br)CC3)cc12 [Example F27-S184, N-(2-(4-(3-bromothiophene-2-formyl)piperazin-1-yl)phenyl)-2-hydroxymethyl-3-methyl-N-phenethylbenzofuran-5-sulfonamide] | 0.1 to 10 µM | –
CCOC(=O)c1oc2ccc(S(=O)(=O)N(CCc3ccccc3)Cc3ccccc3F)cc2c1C [Example M4-14, ethyl 3-methyl-5-(N-(2-fluorobenzyl)-N-phenethylsulfamoyl)benzofuran-2-carboxylate] | – | 50 to 100 µM
CCOC(=O)c1oc2ccc(S(=O)(=O)N(CCc3ccccc3)Cc3ccccc3Cl)cc2c1C [Example M4-15, ethyl 3-methyl-5-(N-(2-chlorobenzyl)-N-phenethylsulfamoyl)benzofuran-2-carboxylate] | – | 50 to 100 µM
CCOC(=O)c1oc2ccc(S(=O)(=O)N(CCc3ccccc3)Cc3ccccc3Br)cc2c1C [Example M4-16, ethyl 3-methyl-5-(N-(2-bromobenzyl)-N-phenethylsulfamoyl)benzofuran-2-carboxylate] | – | 50 to 100 µM
CCOC(=O)c1oc2ccc(S(=O)(=O)N(CCc3ccccc3)Cc3ccccc3C)cc2c1C [Example M4-17, ethyl 3-methyl-5-(N-(2-methylbenzyl)-N-phenethylsulfamoyl)benzofuran-2-carboxylate] | – | 50 to 100 µM
CCOC(=O)c1oc2ccc(S(=O)(=O)N(CCc3ccccc3)Cc3ccccc3C(F)(F)F)cc2c1C [Example M4-18, ethyl 3-methyl-5-(N-(2-trifluoromethylbenzyl)-N-phenethylsulfamoyl)benzofuran-2-carboxylate] | – | 50 to 100 µM
CCOC(=O)c1oc2ccc(S(=O)(=O)N(CCc3ccccc3)Cc3ccccc3[N+](=O)[O-])cc2c1C [Example M4-19, ethyl 3-methyl-5-(N-(2-nitrobenzyl)-N-phenethylsulfamoyl)benzofuran-2-carboxylate] | – | 50 to 100 µM
CCOC(=O)c1oc2ccc(S(=O)(=O)N(CCc3ccccc3)Cc3cccc(F)c3)cc2c1C [Example M4-20, ethyl 3-methyl-5-(N-(3-fluorobenzyl)-N-phenethylsulfamoyl)benzofuran-2-carboxylate] | – | 50 to 100 µM
CCOC(=O)c1oc2ccc(S(=O)(=O)N(CCc3ccccc3)Cc3cccc(Cl)c3)cc2c1C [Example M4-21, ethyl 3-methyl-5-(N-(3-chlorobenzyl)-N-phenethylsulfamoyl)benzofuran-2-carboxylate] | – | 50 to 100 µM
CCOC(=O)c1oc2ccc(S(=O)(=O)N(CCc3ccccc3)Cc3cccc(Br)c3)cc2c1C [Example M4-22, ethyl 3-methyl-5-(N-(3-bromobenzyl)-N-phenethylsulfamoyl)benzofuran-2-carboxylate] | – | 50 to 100 µM
CCOC(=O)c1oc2ccc(S(=O)(=O)N(CCc3ccccc3)Cc3cccc(C)c3)cc2c1C [Example M4-23, ethyl 3-methyl-5-(N-(3-methylbenzyl)-N-phenethylsulfamoyl)benzofuran-2-carboxylate] | – | 50 to 100 µM
CCOC(=O)c1oc2ccc(S(=O)(=O)N(CCc3ccccc3)Cc3cccc(C(F)(F)F)c3)cc2c1C [Example M4-24, ethyl 3-methyl-5-(N-(3-trifluoromethylbenzyl)-N-phenethylsulfamoyl)benzofuran-2-carboxylate] | – | 50 to 100 µM
CCOC(=O)c1oc2ccc(S(=O)(=O)N(CCc3ccccc3)Cc3cccc([N+](=O)[O-])c3)cc2c1C [Example M4-25, ethyl 3-methyl-5-(N-(3-nitrobenzyl)-N-phenethylsulfamoyl)benzofuran-2-carboxylate] | – | 50 to 100 µM
CCOC(=O)c1oc2ccc(S(=O)(=O)N(CCc3ccccc3)Cc3cccc(-c4ccccc4)c3)cc2c1C [Example M4-26, ethyl 3-methyl-5-(N-([1,1′-biphenyl]-3-ylmethyl)-N-phenethylsulfamoyl)benzofuran-2-carboxylate] | – | 50 to 100 µM

Compound | IC50 [1] | IC50 [2]
CCOC(=O)c1oc2ccc(S(=O)(=O)N(CCc3ccccc3)Cc3cccc(Oc4ccccc4)c3)cc2c1C [Example M4-27] | – | 50 to 100 µM
CCOC(=O)c1oc2ccc(S(=O)(=O)N(CCc3ccccc3)Cc3ccc(F)cc3)cc2c1C [Example M4-28, ethyl 3-methyl-5-(N-(4-fluorobenzyl)-N-phenethylsulfamoyl)benzofuran-2-carboxylate] | – | 50 to 100 µM
CCOC(=O)c1oc2ccc(S(=O)(=O)N(CCc3ccccc3)Cc3ccc(Cl)cc3)cc2c1C [Example M4-29, ethyl 3-methyl-5-(N-(4-chlorobenzyl)-N-phenethylsulfamoyl)benzofuran-2-carboxylate] | – | 50 to 100 µM
CCOC(=O)c1oc2ccc(S(=O)(=O)N(CCc3ccccc3)Cc3ccc(Br)cc3)cc2c1C [Example M4-30, ethyl 3-methyl-5-(N-(4-bromobenzyl)-N-phenethylsulfamoyl)benzofuran-2-carboxylate] | – | 50 to 100 µM
CCOC(=O)c1oc2ccc(S(=O)(=O)N(CCc3ccccc3)Cc3ccc(C)cc3)cc2c1C [Example M4-31, ethyl 3-methyl-5-(N-(4-methylbenzyl)-N-phenethylsulfamoyl)benzofuran-2-carboxylate] | – | 50 to 100 µM
CCOC(=O)c1oc2ccc(S(=O)(=O)N(CCc3ccccc3)Cc3ccc(C(F)(F)F)cc3)cc2c1C [Example M4-32, ethyl 3-methyl-5-(N-(4-trifluoromethylbenzyl)-N-phenethylsulfamoyl)benzofuran-2-carboxylate] | – | 50 to 100 µM
CCOC(=O)c1oc2ccc(S(=O)(=O)N(CCc3ccccc3)Cc3ccc(C#N)cc3)cc2c1C [Example M4-33, ethyl 3-methyl-5-(N-(4-cyanobenzyl)-N-phenethylsulfamoyl)benzofuran-2-carboxylate] | – | 50 to 100 µM
CCOC(=O)c1oc2ccc(S(=O)(=O)N(CCc3ccccc3)Cc3ccc(OC(F)(F)F)cc3)cc2c1C [Example M4-34, ethyl 3-methyl-5-(N-(4-(trifluoromethoxy)benzyl)-N-phenethylsulfamoyl)benzofuran-2-carboxylate] | – | 50 to 100 µM
CCOC(=O)c1oc2ccc(S(=O)(=O)N(CCc3ccccc3)Cc3ccc(SC(F)(F)F)cc3)cc2c1C [Example M4-35, ethyl 3-methyl-5-(N-(4-(trifluoromethylthio)benzyl)-N-phenethylsulfamoyl)benzofuran-2-carboxylate] | – | 50 to 100 µM
CCOC(=O)c1oc2ccc(S(=O)(=O)N(CCc3ccccc3)Cc3ccc(C(C)C)cc3)cc2c1C [Example M4-36, ethyl 3-methyl-5-(N-(4-isopropylbenzyl)-N-phenethylsulfamoyl)benzofuran-2-carboxylate] | – | 50 to 100 µM
CCOC(=O)c1oc2ccc(S(=O)(=O)N(CCc3ccccc3)Cc3ccc(C(C)(C)C)cc3)cc2c1C [Example M4-37, ethyl 3-methyl-5-(N-(4-(tert-butyl)benzyl)-N-phenethylsulfamoyl)benzofuran-2-carboxylate] | – | 50 to 100 µM
CCOC(=O)c1oc2ccc(S(=O)(=O)N(CCc3ccccc3)Cc3ccc(C(C)=O)cc3)cc2c1C [Example M4-38, ethyl 3-methyl-5-(N-(4-acetylbenzyl)-N-phenethylsulfamoyl)benzofuran-2-carboxylate] | – | 50 to 100 µM
CCOC(=O)c1oc2ccc(S(=O)(=O)N(CCc3ccccc3)Cc3ccc(C(=O)OC)cc3)cc2c1C [Example M4-39, ethyl 3-methyl-5-(N-(4-(methoxycarbonyl)benzyl)-N-phenethylsulfamoyl)benzofuran-2-carboxylate] | – | 50 to 100 µM
CCOC(=O)c1oc2ccc(S(=O)(=O)N(CCc3ccccc3)Cc3ccc(C(=O)OC(C)(C)C)cc3)cc2c1C [Example M4-40, ethyl 3-methyl-5-(N-(4-(tert-butoxycarbonyl)benzyl)-N-phenethylsulfamoyl)benzofuran-2-carboxylate] | – | 50 to 100 µM
CCOC(=O)c1oc2ccc(S(=O)(=O)N(CCc3ccccc3)Cc3ccc(CC(=O)OC)cc3)cc2c1C [Example M4-41, ethyl 3-methyl-5-(N-(4-(2-methoxy-2-oxoethyl)benzyl)-N-phenethylsulfamoyl)benzofuran-2-carboxylate] | – | 50 to 100 µM
CCOC(=O)c1oc2ccc(S(=O)(=O)N(CCc3ccccc3)Cc3ccc(/C=C/C(=O)OC)cc3)cc2c1C [Example M4-42, (E)ethyl-3-methyl-5-(N-(4-(3-methoxy-3-oxoprop-1-en-1-yl)benzyl)-N-phenethylsulfamoyl)benzofuran-2-carboxylate] | – | 50 to 100 µM
CCOC(=O)c1oc2ccc(S(=O)(=O)N(CCc3ccccc3)Cc3cccc4ccccc34)cc2c1C [Example M4-43, ethyl 3-methyl-5-(N-(naphthalen-1-ylmethyl)-N-phenethylsulfamoyl)benzofuran-2-carboxylate] | – | 50 to 100 µM
